Measurements reported in US20040258772A1, “Methods of treating angiogenesis, tumor growth, and metastasis” (priority 2002, published 2004).
Entries after “also recorded” stand apart in the source; their conditions may differ.

Columns and labels:
angiogenesis = assay: Matrigel angiogenesis assay, FGF/heparin Matrigel implanted under the skin; assay type: in vivo, C57/B16 mice
Text: (§1) For human tumor studies, female SCID mice (weighing 20 to 30 g) were purchased from Taconic (White Plains, N.Y.) and allowed to acclimate for 1 week prior to experimentation. For murine tumor and matrigel studies, male CBA and C57B1/6 mice (weighing 25 to 30 g) were purchased form Jackson Labs (Bar Harbor, Me.) and also were allowed to acclimate for 1 week prior to experimentation.
(§2) Cell cultures and mice were exposed to CO at a concentration of 250 ppm. Briefly, 1% CO in air was mixed with air (21% oxygen) in a stainless steel mixing cylinder and then directed into a 3.70 ft^3 glass exposure chamber at a flow rate of 12 L/min. A CO analyzer (Interscan, Chatsworth, Calif.) was used to measure CO levels continuously in the chamber. CO concentrations were maintained at 250 ppm at all times. Cell cultures and mice were placed in the exposure chamber as required.
The effect of CO (250 ppm) on angiogenesis was investigated using a Matri gel […] angiogenesis assay. A solubilized basement membrane matrix (Matrigel™) containing 20 ng/ml growth factor (FGF) and heparin was implanted under the skin of C57/B16 mice. The mice were then exposed to air or CO in air for two weeks. After the two-week period, the Matrigel™ was removed and examined.
In a separate experiment, Matrigel™ deposits containing 20 ng/ml growth factor (FGF) and heparin were implanted under the skin of C57/B16 mice, and the mice were exposed to air or CO (250 ppm) in air for 21 days. Photomicrographs of hematoxylin- and eosin-stained paraffin sections from the resected subcutaneous FGF-Matrigel deposits were prepared. Prominent angiogenesis was evident in deposits from air-exposed mice, as was a front of infiltrating vascular cells organizing into blood filled micro-capillaries (data not shown).

AC29 cells = assay: Mesothelioma (AC29) survival model, cells injected intraperitoneally; assay type: in vivo, CBA mice
Text: as §1, §2
The first was a mesothelioma (AC29) model, wherein CBA mice were injected with 1×10^6 AC29 cells intraperitoneally and monitored for survival when continuously exposed to air or to an atmosphere containing 250 ppm CO for a period of six weeks. […] The survival rate of the CO-exposed mice was increased by greater than 90% as compared to air-exposed mice. The arrow shown in FIG. 3 denotes a time point at which half of the CO-exposed mice were removed from the CO chamber. Half of the mice were removed at that time to determine whether the effects of CO on mouse survival require continuous exposure to CO. A significant number of mice (50%, p<0.02) that were removed from the CO-containing atmosphere remained alive at the end of the experiment, whereas all air treated mice died by day 36. The number of mice in each group was 12 to 20 animals.
In another experiment, it was shown that CO-exposed mice survived for greater than 65 days (data not shown).

[1] = system: p21, p27, PCNA, Cdc25b, cyclin D1 in A549 cells; assay: Immunoblot of growth/cell cycle proteins; assay type: cell-based, human
Method: Immunoblotting was performed to investigate protein expression by standard methods known in the art. Antibodies were purchased from Santa Cruz, StressGen and Cell Signaling.
To investigate CO-induced changes in the expression of various growth/cell cycle proteins in cancer cells, A549 cells were exposed for 24 hours to air or CO (250 ppm). After this period of exposure, cell lysates were collected from the cells and changes in protein expression in the lysates were examined by immunoblot.

HTC cells = assay: [3H] thymidine uptake in wild-type and p21-deficient colon cancer cells; assay type: cell-based, human; conditions: p21-/- HTC cells versus wild type
Method: (§3) For [^3H] thymidine incorporation studies, cells were serum-starved overnight and then stimulated with 20% serum containing 5 mCi/ml [^3H] thymidine (New England Nuclear, Boston, Mass.). [^3H] thymidine incorporation was measured by scintillation spectroscopy. CO inhibits the growth of cancer cells in vitro Human and mouse cancer cell lines were used to investigate the effect of CO on growth rates of the cells in culture. Human adenocarcinoma cells (A549), mouse mesothelioma cells (AC29), and A549 and AC29 cells transformed with the heme oxygenase-1 (HO-1) gene (which causes the cells to overexpress HO-1) were exposed to low levels of CO (250 ppm) in culture. Four-day growth curves were generated.
Wild-type (Wt) HTC cells and HTC cells deficient in p21 (p21−/−), a gene known to control cell growth, were exposed to air or CO to determine whether p21 is involved in CO-induced growth arrest (FIG. 6). As indicated by [^3H] thymidine uptake, CO-induced growth arrest appears less marked in HTC cells that are deficient in p21.

[2] = system: mouse mesothelioma cells (AC29); assay: Growth curves of cancer cells in culture exposed to CO; assay type: cell-based
Text: (§4) A human adenocarcinoma cell line designated A549, a murine mesothelioma cell line designated AC29, and a human colon cancer cell line designated HCT were utilized for the studies described herein.
as §2
as §3, with “Four-day growth curves were generated.” left out

A549 cells [3] = assay: [3H] thymidine uptake, cGMP dependence of CO-induced growth arrest; assay type: cell-based, human; conditions: CO 250 ppm 3 hours before and 24 hours after serum; compared to CO alone
Method: as §3
The cellular mechanisms by which CO causes inhibition were also investigated. To investigate whether CO-induced growth arrest is CGMP dependant, A549 cells were exposed to air, CO, CO+ODQ, or CO+Rp-8-BR. […] The ability of the cells to proliferate was determined by measuring the uptake of [3H] thymidine by the cells (FIG. 5). Cells were exposed to CO (250 ppm) for 3 hours prior to the addition of serum and [3H] thymidine (5 mCi/ml). After the addition of serum and [3H] thymidine, cells were maintained in CO for 24 hours. Cells were then rinsed, fixed and examined by scintillation spectroscopy.

A549 cells [4] = assay: Adenocarcinoma (A549) subcutaneous tumor model; assay type: in vivo, SCID mice
Text: as §1, §2
The second model was an adenocarcinoma (A549) model, wherein SCID mice were injected with 1×10^6 A549 cells subcutaneously. These animals were continuously exposed to air or to 250 ppm of CO for a period of six weeks. After the six-week period, the volume of the tumors that developed in the mice was evaluated.

[5] = system: Human adenocarcinoma cells (A549); assay type: cell-based; conditions: 250 ppm CO
Text: as §4, §2, §3

[6] = system: VEGF production by A549 cells; assay: VEGF production by ELISA; assay type: cell-based, human; conditions: CO plus air for 24 to 48 hours vs air alone
Method: ELISA kits for VEGF levels were purchased from R&D Systems and used according to the manufacturer's directions.
Whether CO inhibits production of VEGF, a growth factor that contributes to angiogenesis by promoting blood vessel growth, was investigated. A549 cells were exposed to air or CO plus air for 24 to 48 hours in vitro, and VEGF production by A549 cells was detected using an enzyme-linked immunosorbent assay (ELISA).

[7] = system: A549 cells transformed to overexpress HO-1; assay: A549 HO-1 overexpressing tumor model; assay type: in vivo, mice; conditions: 50 μmol/kg s.c., data not shown
Method: The third model was also an A549 model, wherein mice were injected with A549 cells transformed to overexpress HO-1 (HO-1 clones A5 and L1). After the six-week period, the size and volume of tumors that developed in the mice were evaluated. […] Using Western blot analysis, the relative decrease in volume was determined to correlate with a relative decrease in expression of cyclin D1, a protein involved in the regulation of cell growth (data not shown).

SMILES: [C-]#[O+] [CO, carbon monoxide]
- cellularity and blood in Matrigel deposits (angiogenesis; 250 ppm CO in air for 21 days): paucity of cellularity and blood
- angiogenesis in Matrigel deposits (angiogenesis; 250 ppm CO in air for 21 days, H&E sections): No angiogenesis was evident
- angiogenesis in Matrigel (angiogenesis; 250 ppm CO in air for two weeks, data not shown): no new blood vessel growth
- increase of survival rate (AC29 cells; 250 ppm CO, compared to air-exposed mice): greater than 90%
- survival (AC29 cells; CO treatment delayed until one week after injection of mesothelioma cells): prolonged the lives; also recorded: prolongs survival
- survival time (AC29 cells; another experiment, data not shown): greater than 65 days
- survival (AC29 cells; continuous 250 ppm CO for six weeks vs air): lived longer; also recorded: prolongs survival
- mice removed from CO-containing atmosphere alive at end of experiment (AC29 cells; half of CO-exposed mice removed from chamber, p<0.02, all air treated mice died by day 36): 50%
- expression of p21, p27, PCNA, Cdc25b and cyclin D1 ([1]; 250 ppm CO for 24 hours): causes changes in expression
- expression of p21 ([1]; CO for 4, 8 and 24 hours): causes changes in expression
- CO-induced growth arrest ([3H] thymidine uptake) (HTC cells): less marked
- reduction in cell number ([2]; 250 ppm CO, by three days, compared to controls): > 40%
- proliferation after removal from CO-containing atmosphere ([2]; cultures removed from CO at day 5): proliferate at a normal rate
- proliferation of AC29 cells ([2]; six-day growth curve, CO vs air): inhibits the proliferation
- uptake of [3H] thymidine (proliferation) (A549 cells [3]): growth arrest
- tumor volume (A549 cells [4]; CO plus air vs air alone): reduced
- reduction of tumor volume (A549 cells [4]; continuous 250 ppm CO for six weeks, compared to air-exposed mice): greater than 50%
- toxicity as cause of reduced cell numbers ([5]; A549 and AC29 cultures, confluency eventually achieved): not due to toxicity
- reduction in cell number ([5]; by three days, compared to controls): > 40%
- VEGF production [6]: substantially less VEGF; also recorded: inhibits

SMILES: C=Cc1c2[n-]c(c1C)/C=c1\[n-]/c(c(C)c1C=C)=C\c1[n-]c(c(CCC(=O)O)c1C)/C=c1\[n-]c(c(C)c1CCC(=O)O)=C2.[Sn+4] [tin protoporphyrin]
- effect on the inhibition of tumor growth by HO-1 overexpression [7]: reversible
